Results from patent US8329751B2, “Compounds having aryl-sulphonamidic structure useful as metalloproteases inhibitors” (Bracco Imaging S.p.A., priority 2007, dated 2012).

Assays:
MMP-2 = target: T1, MMP-2 (Homo sapiens, UniProt P08253); test: MMP inhibition assay, fluorogenic substrate FS-6, MMP-2; format: biochemical; details: substrate FS-6 2 μM; enzyme and inhibitor incubated 4 h at 25° C.
T1 construct: supplied by Prof; Gillian Murphy (Department of Oncology, University of Cambridge, UK); not a commercial purchase
T1 sequence (P08253 110-660): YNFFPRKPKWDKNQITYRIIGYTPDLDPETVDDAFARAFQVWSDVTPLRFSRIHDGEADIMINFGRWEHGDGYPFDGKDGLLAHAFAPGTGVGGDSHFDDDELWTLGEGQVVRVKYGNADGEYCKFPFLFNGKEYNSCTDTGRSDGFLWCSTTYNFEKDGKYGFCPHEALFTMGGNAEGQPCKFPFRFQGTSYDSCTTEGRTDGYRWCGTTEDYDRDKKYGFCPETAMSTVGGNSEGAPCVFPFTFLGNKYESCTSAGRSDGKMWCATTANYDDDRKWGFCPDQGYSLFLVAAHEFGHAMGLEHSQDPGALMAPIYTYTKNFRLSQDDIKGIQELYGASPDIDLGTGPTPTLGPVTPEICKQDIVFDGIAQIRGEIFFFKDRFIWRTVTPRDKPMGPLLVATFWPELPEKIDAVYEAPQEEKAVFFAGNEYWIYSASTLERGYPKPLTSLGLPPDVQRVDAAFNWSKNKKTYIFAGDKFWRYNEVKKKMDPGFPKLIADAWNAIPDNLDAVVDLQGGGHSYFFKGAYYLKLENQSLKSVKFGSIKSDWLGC
Method: (§1) As reported therein, the inhibitory activity of the compounds of the invention was evaluated on the known fluorogenic substrate (Mca-Lys-Pro-Leu-Gly-Leu-Dpa-Ala-Arg-NH2), shortly referred to as FS-6 (see, as a reference, U. Neumann, Analytical Biochem. 2004, 328, 166-173).
(§2) Recombinant human pro-MMP-2 was supplied by Prof. Gillian Murphy (Department of Oncology, University of Cambridge, UK), while pro-MMP-13 and pro-MMP-14 were purchased from Calbiochem. […] Pro-MMP-14 was activated with trypsin 5 μg/ml for 15 min at 37° C. followed by soybean trypsin inhibitor (SBTI) 23, μg/ml. For assay measurements, the inhibitor stock solutions (DMSO, 100 mM) were further diluted, at seven different concentrations (0.01 nM-100 μM) for each MMP in the fluorimetric assay buffer (FAB: Tris 50 mM, pH=7.5, NaCl 150 mM, CaCl2 10 mM, Brij 35 0.05% and DMSO 1%). Activated enzyme (final concentration 2.9 nM for MMP-2, 1 nM for MMP-14, 0.33 nM for MMP-13) and inhibitor solutions were incubated in the assay buffer for 4 h at 25° C. After the addition of 200 μM solution of the fluorogenic substrate Mca-Lys-Pro-Leu-Gly-Leu-Dpa-Ala-Arg-NH2 (Bachem) (see, for a reference, Neumann, U.; Kubota, H.; Frei, K.; Ganu, V.; Leppert, D. Anal. Biochem. 2004, 328, 166) for all of the enzymes in DMSO (final concentration 2 μM), the hydrolysis was monitored every 15 sec. for 20 min recording the increase in fluorescence (λex=325 nm, λem=395 nm) using a Molecular Device SpectraMax Gemini XS plate reader.
(§3) The assays were performed in triplicate, in a total volume of 200 μl per well, in 96-well microtitre plates (Corning, black, NBS). Control wells lack inhibitor. The MMP inhibition activity was expressed in relative fluorescent units (RFU). Percent of inhibition was calculated from control reactions without the inhibitor. IC50 was determined using the formula: Vi/Vo=1/(1+[I]/IC50), where V, is the initial velocity of substrate cleavage in the presence of the inhibitor at concentration [I] and Vo is the initial velocity in the absence of the inhibitor. Results were analyzed using SoftMax Pro software and GraFit software.

MMP-13 = MMP-13 (Homo sapiens, UniProt P45452); test: MMP inhibition assay, fluorogenic substrate FS-6, MMP-13; format: biochemical; details: substrate FS-6 2 μM; enzyme and inhibitor incubated 4 h at 25° C.
Method: as §1, §2, §3

MMP-14 = target: T2, MMP-14 (Homo sapiens, UniProt P50281); test: MMP inhibition assay, fluorogenic substrate FS-6, MMP-14; format: biochemical; details: substrate FS-6 2 μM; enzyme and inhibitor incubated 4 h at 25° C.
T2 construct: purchased Calbiochem
Method: as §1, §2, §3

HUVEC [1] = test: HUVEC growth assay (crystal violet); format: cell-based, human
Method: (§4) Compound (2), as a representative compound of the invention, was tested in an in vivo assay to evaluate its inhibitory activity on cancer cells. In particular, HUVEC cultures were purchased from Cascade Biologics (Portland, Oreg.) and cultured in gelatin-coated flasks using M199, 10% FCS (Fetal Calf Serum, Seromed, Milan, Italy) supplemented with FGF (Fibroblast Growth Factor, PeproTech, Inc., Rocky Hill, N.J.) (1 μg aFGF (acidic Fibroblast Growth Factor)+1 μg bFGF (basic Fibroblast Growth Factor)/100 ml medium), EGF (Epidermal Growth Factor) (1 μg/100 ml medium), heparin (10 mg/100 ml medium), (ICN Pharmaceuticals, Inc., Casta Mesa, Calif.), hydrocortisone (Sigma Chemical Co.) (0.1 mg/100 ml medium).
At day 0 cells were plated in 96 microwell plates at 1000 cells in 200 μl of complete culture medium. The inhibitor was added to the cells at different concentrations (10, 100 μM). HUVEC were quantified at 24, 48 and 72 hrs. Indirect optical density (OD) quantification was obtained fixing/staining the cells for 20 minutes with a crystal violet solution [see, for a reference, Fassina, G. et al., Clin Cancer Res, (2004) 10, 4865-73].

HUVEC [2] = test: HUVEC chemoinvasion in Boyden chambers; format: cell-based, human; details: 100 μM, 5 hours
Method: as §4, with “N.J.) (1 μg aFGF” left out, “[…].),” for “Casta Mesa, Calif.),”, “medium). HUVEC invasion was assessed in Boyden chambers (Costar) using serum-free fibroblast conditioned medium (FB-CM) as chemoattractants. Cells were treated with the inhibitor at the indicated doses and incubated at 37° C. for 5 hours in humidified atmosphere. Cell invasion was assessed by densitometric scanning of whole filter surface. Each test was performed in triplicate and repeated three times [see, for a reference, Albini, A., et al., Int. J. Dev. Biol., (2004), 48, 563-71].” for “medium).”

HUVEC [3] = test: pro-apoptotic activity on HUVEC; format: cell-based, human

Row | Compound | IC50 (MMP-2) | IC50 (MMP-13) | IC50 (MMP-14) | cell growth inhibition as compared to untreated controls (HUVEC [1]; 10 and 100 μM, 24, 48 and 72 hrs) | inhibition at 100 µM (HUVEC [1]; Homo sapiens, 100 μM, starting from 48 hours of treatment, read-out: cell growth inhibition) | inhibitory activity on endothelial cell migration through a reconstituted basement membrane (HUVEC [2]) | induction of programmed cell death (HUVEC [3]; at 48 hours) | pro-apoptotic activity (HUVEC [3]; high dose (100 μM))
1 | COc1ccc(-c2ccc(S(=O)(=O)N(OC(C)C)[C@H](CCNC(=O)Cc3ccccc3)C(=O)NO)cc2)cc1 [Compound 1g, (R)—N-hydroxy-2-(N-isopropoxy-4′-methoxybiphenyl-4-ylsulfonamido)-4-(2-phenylacetamido)butanamide] | 0.37 ± 0.06 nM | 0.25 ± 0.02 nM | 24.7 ± 2.2 nM |  |  |  |  | 
2 | CC(C)ON([C@H](CCNS(C)(=O)=O)C(=O)NO)S(=O)(=O)c1ccc(-c2ccccc2)cc1 [Compound 1c, (R)—N-hydroxy-2-(N-isopropoxybiphenyl-4-ylsulfonamido)-4-(methylsulfonamido)butanamide] | 0.98 ± 0.12 nM | 2.2 ± 0.3 nM | 95.5 ± 4.5 nM |  |  |  |  | 
3 | COc1ccc(-c2ccc(S(=O)(=O)N(OCCOCCN3CCNCC3)[C@H](CCNC(=O)OCc3ccccc3)C(=O)NO)cc2)cc1 [Compound 1j] | 0.3 ± 0.03 nM | 0.2 ± 0.01 nM | 27 ± 1 nM |  |  |  |  | 
4 | COc1ccc(-c2ccc(S(=O)(=O)N(OC(C)C)[C@H](CCN3C(=O)c4ccccc4C3=O)C(=O)NO)cc2)cc1 [Compound 2, (R)-4-(1,3-dioxoisoindolin-2-yl)-N-hydroxy-2-(N-isopropoxy-4′-methoxybiphenyl-4-ylsulfonamido)butanamide] | 0.67 ± 0.06 nM | 0.19 ± 0.01 nM | 3.9 ± 0.18 nM | time and dose dependent cell growth inhibition | 100% | significant inhibitory activity | ability to induce programmed cell death | some pro-apoptotic activity
5 | COc1ccc(-c2ccc(S(=O)(=O)N(OC(C)C)[C@H](CCNC(C)=O)C(=O)NO)cc2)cc1 [Compound 1f, (R)-4-acetamido-N-hydroxy-2-(N-isopropoxy-4′-methoxybiphenyl-4-ylsulfonamido)butanamide] | 0.13 ± 0.03 nM | 0.58 ± 0.04 nM | 23.5 ± 2.2 nM |  |  |  |  | 
6 | CC(C)ON([C@H](CCNC(=O)c1ccccc1)C(=O)NO)S(=O)(=O)c1ccc(-c2ccccc2)cc1 [Compound 1b, (R)—N-(4-(hydroxyamino)-3-(N-isopropoxybiphenyl-4-ylsulfonamido)-4-oxobutyl)benzamide] | 1.48 ± 0.17 nM | 4.6 ± 0.1 nM | 94 nM |  |  |  |  | 
7 | CC(C)ON([C@H](CCNC(=O)OCc1ccccc1)C(=O)NO)S(=O)(=O)c1ccc(-c2ccccc2)cc1 [Reference Compound (5b), reference compound] | 8.4 ± 0.1 nM | 4.4 ± 0.5 nM | 240 ± 19 nM |  |  |  |  | 
8 | CC(=O)NCC[C@H](C(=O)NO)N(OC(C)C)S(=O)(=O)c1ccc(-c2ccccc2)cc1 [Compound 1d, (R)-4-acetamido-N-hydroxy-2-(N-isopropoxybiphenyl-4-ylsulfonamido)butanamide] | 0.33 ± 0.02 nM | 0.68 ± 0.1 nM | 41.1 ± 1.16 nM |  |  |  |  | 
9 | CC(C)ON([C@H](CCNC(=O)Cc1ccccc1)C(=O)NO)S(=O)(=O)c1ccc(-c2ccccc2)cc1 [Compound 1e, (R)—N-hydroxy-2-(N-isopropoxybiphenyl-4-ylsulfonamido)-4-(2-phenylacetamido)butanamide] | 1.43 ± 0.1 nM | 1.4 ± 0.1 nM | 80.7 ± 5.4 nM |  |  |  |  | 
